The source of these data is patent publication US5326787A, “Cycloalkyl N-hydroxy derivatives having lipoxygenase inhibitory activity” (Abbott Laboratories, priority 1993, dated 1994).

One test concerns the target T1, 5-Lipoxygenase (Homo sapiens, UniProt P09917).
T1 construct: from tissue; host or cells: human heparinized whole blood (endogenous enzyme of the blood leukocytes)
T1 sequence (P09917 1-674): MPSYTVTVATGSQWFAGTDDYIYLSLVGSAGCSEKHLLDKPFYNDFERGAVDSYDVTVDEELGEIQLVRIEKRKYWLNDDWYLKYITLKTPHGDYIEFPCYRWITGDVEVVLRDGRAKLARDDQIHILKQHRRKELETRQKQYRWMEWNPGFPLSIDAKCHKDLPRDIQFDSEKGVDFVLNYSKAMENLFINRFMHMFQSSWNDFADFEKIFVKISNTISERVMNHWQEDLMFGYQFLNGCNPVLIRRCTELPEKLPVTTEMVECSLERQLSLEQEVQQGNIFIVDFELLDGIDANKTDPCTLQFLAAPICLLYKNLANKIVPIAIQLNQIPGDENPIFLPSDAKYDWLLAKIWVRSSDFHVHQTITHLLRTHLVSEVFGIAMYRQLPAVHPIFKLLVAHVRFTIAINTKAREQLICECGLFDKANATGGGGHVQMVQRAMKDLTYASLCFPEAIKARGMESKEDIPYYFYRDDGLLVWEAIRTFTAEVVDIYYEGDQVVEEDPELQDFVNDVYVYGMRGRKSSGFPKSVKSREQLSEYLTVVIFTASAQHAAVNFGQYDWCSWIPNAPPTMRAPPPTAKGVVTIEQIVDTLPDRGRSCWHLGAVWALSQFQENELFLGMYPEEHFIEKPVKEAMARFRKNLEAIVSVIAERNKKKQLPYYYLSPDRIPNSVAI
In words: Calcium ionophore-induced LTB4 biosynthesis in human whole blood. In kind it is cell-based. The conditions noted are these: human heparinized whole blood, 15 min preincubation at 37° C., A23187 8.3 μM, 30 min, LTB4 by radioimmunoassay; read-out: IC50 against 5-Lipoxygenase from Stimulated LTB4 Formation in Human Whole Blood. Here is the method:
Inhibition of leukotriene biosynthesis was evaluated in an assay, involving calcium ionophore-induced LTB4 biosynthesis expressed human whole blood. […] The methanol extract was analyzed for LTB4 using a commercially available radioimmunoassay.

The subject of test [1] is biosynthesis of leukotrienes. Nature of the test: Inhibition of leukotriene biosynthesis in vivo after oral administration, rat peritoneal anaphylaxis model. As to conditions: percent inhibition vs mean of control group, oral gavage 100 μmoles/kg one hour prior to antigen challenge, peritoneal fluids 15 minutes after challenge. Here is the method:
Inhibition of the biosynthesis of leukotrienes in vivo after oral administration of compound was determined using a rat peritoneal anaphylaxis model in a similar manner as that described by Young and coworkers (Young, P. R.; Dyer, R. D.; Carter, G. W. Fed. Proc., Fed. Am. Soc. Exp. Biol. 1985, 44, 1185). In this model rats were injected intraperitoneally (ip) with rabbit antibody to bovine serum albumin (BSA) and three hours later injected ip with BSA to induce an antigen-antibody response. Rats were sacrificed 15 minutes after this challenge and the peritoneal fluids were collected and analyzed for leukotriene levels. Test compounds were administered by gavage one hour prior to the antigen challenge. Percent inhibition values were determined by comparing the treatment group to the mean of the control group.

Consider `NC(=O)N(O)CC1CCCCCC1` [Example 5, N-hydroxy-N-1-(1-cycloheptyl)methylurea], for which the IC50 (in general, the midpoint of a concentration-inhibition curve) at 5-Lipoxygenase is under 1500 nM.

In the case of `NC(=O)N(O)CC1CCC1` [Example 2, N-cyclobutylmethyl-N-hydroxyurea], the IC50 at 5-Lipoxygenase turned out to be 900 nM. For the same molecule, the inhibition (usually the relative decrease from the control value, in per cent) at 100 µmol/kg in test [1] came to 92%.

For `NC(=O)N(O)CC1CCCC1` [Example 3, N-cyclopentylmethyl-N-hydroxyurea], the 50% inhibitory concentration (IC50) on 5-Lipoxygenase came out at 700 nM. This molecule yielded an inhibition at 100 µmol/kg in test [1] of 83%. The matching figures for `NC(=O)N(O)CC1CCCCC1` [Example 4, N-hydroxy-N-1-(1-cyclohexyl)methylurea]: 1100 nM and 64%. As for `NC(=O)N(O)C[C@H]1C[C@@H]1C1CC1` (relative stereo) [Example 1, N-1-(trans-2-cyclopropylcyclopropylmethyl)-N-hydroxyurea], the IC50 on 5-Lipoxygenase is under 300 nM. In test [1], the inhibition at 100 µmol/kg was 96%.
